Source: ChEMBL document CHEMBL3259549, “Unraveling the structure-activity relationship of tomatidine, a steroid alkaloid with unique antibiotic properties against persistent forms of Staphylococcus aureus” (2014)
≈ marks a conversion by molar mass, not a printed value.

Tests used:
[1] = test system: Staphylococcus aureus; assay: MIC fold reduction, ratio of gentamicin MIC for Staphylococcus aureus ATCC 29213 to gentamicin MIC for Staphylococcus aureus ATCC 29213 in presence of compound
[2] = test system: Staphylococcus aureus; assay: microbe, parasite or virus in culture; details: ATCC 29213, 48 h
Description: Antimicrobial activity against Staphylococcus aureus ATCC 29213 after 48 hrs by broth microdilution method

[3] = test system: Staphylococcus aureus; assay: Antimicrobial activity against hemB-deficient Staphylococcus aureus Newbould after 48 hrs by broth microdilution method; format: functional

| Compound | gentamicin MIC fold reduction [1] | MIC [2] [µg/mL] | MIC [3] [µg/mL] |
| --- | --- | --- | --- |
| C[C@H]1CC[C@@]2(O[C@H]3C[C@H]4[C@@H]5CC[C@H]6C[C@@H](O)CC[C@]6(C)[C@H]5CC[C@]4(C)[C@H]3[C@@H]2C)N(C=O)C1 | 2 | > 64 | > 8 |
| C[C@H]1CC[C@]2(NC1)O[C@H]1C[C@H]3[C@@H]4CC[C@H]5C[C@@H](O)CC[C@]5(C)[C@H]4CC[C@]3(C)[C@H]1[C@@H]2C.Cl | 8 | > 64 | 0.06 |
| CC(NCCCN(C)C)[C@H]1[C@@H](O)C[C@H]2[C@@H]3CC[C@H]4C[C@@H](O)CC[C@]4(C)[C@H]3CC[C@@]21C (some centres undefined) | 2 | > 64 | > 8 |
| C[C@H]1CC[C@]2(NC1)O[C@H]1C[C@H]3[C@@H]4CC[C@H]5CC(NCCN)CC[C@]5(C)[C@H]4CC[C@]3(C)[C@H]1[C@@H]2C.Cl.Cl.Cl (some centres undefined) | 4 | 8 | 0.5 |
| C[C@H]1CCC([C@@H](C)[C@H]2[C@@H](O)C[C@H]3[C@@H]4CC[C@H]5C[C@@H](O)CC[C@]5(C)[C@H]4CC[C@]23C)NC1.Cl (some centres undefined) | 4 | 32 | 4 |
| CCCCNC(C)[C@H]1CC[C@H]2[C@@H]3CC[C@H]4C[C@@H](O)CC[C@]4(C)[C@H]3CC[C@]12C.Cl (some centres undefined) | 8 | 64 | 4 |
| C[C@H]1CC[C@]2(NC1)O[C@H]1C[C@H]3[C@@H]4CC[C@H]5CC(NCCCCCCN)CC[C@]5(C)[C@H]4CC[C@]3(C)[C@H]1[C@@H]2C.Cl.Cl.Cl (some centres undefined) | 2 | 32 | 1 |
| CC(NCCCN)[C@H]1CC[C@H]2[C@@H]3CC[C@H]4C[C@@H](O)CC[C@]4(C)[C@H]3CC[C@]12C.Cl.Cl (some centres undefined) | 2 | 32 | > 8 |
| CC(=O)NC[C@@H](C)CCC1=C(C)[C@H]2[C@H](C[C@H]3[C@@H]4CC[C@H]5C[C@@H](O)CC[C@]5(C)[C@H]4CC[C@@]32C)O1 | 1 | > 64 | > 8 |
| C[C@H]1CC[C@]2(NC1)O[C@H]1C[C@H]3[C@@H]4CC[C@H]5CC(N)CC[C@]5(C)[C@H]4CC[C@]3(C)[C@H]1[C@@H]2C.Cl.Cl (some centres undefined) | 8 | 32 | 1 |
| C[C@H]1CC[C@]2(NC1)O[C@H]1C[C@H]3[C@@H]4CC[C@H]5CC(NCCCCN)CC[C@]5(C)[C@H]4CC[C@]3(C)[C@H]1[C@@H]2C.Cl.Cl.Cl (some centres undefined) | 4 | 16 | 0.5 |
| CC(=O)NC[C@@H](C)CCC1O[C@H]2C[C@H]3[C@@H]4CC[C@H]5C[C@@H](O)CC[C@]5(C)[C@H]4CC[C@]3(C)[C@H]2[C@@H]1C (some centres undefined) | 1 | > 64 | > 8 |
| CC(=O)NC[C@@H](C)CCC(O)[C@@H](C)[C@H]1[C@@H](O)C[C@H]2[C@@H]3CC[C@H]4C[C@@H](O)CC[C@]4(C)[C@H]3CC[C@]12C (some centres undefined) | 1 | > 64 | > 8 |
| CC(NCCCCN)[C@H]1CC[C@H]2[C@@H]3CC[C@H]4C[C@@H](O)CC[C@]4(C)[C@H]3CC[C@]12C.Cl.Cl (some centres undefined) | 2 | 32 | > 8 |
| C[C@H]1CC[C@]2(NC1)O[C@H]1C[C@H]3[C@@H]4CC[C@H]5C[C@@H](O)CC[C@]5(C)[C@H]4CC[C@]3(C)[C@H]1[C@@H]2C [TOMATIDINE] | – | – | 0.12 (≈ 0.289 µM) |
| GENTAMICIN | – | – | 0.03 |
| CC(N)[C@H]1CC[C@H]2[C@@H]3CC[C@H]4C[C@@H](O)CC[C@]4(C)[C@H]3CC[C@]12C.Cl (some centres undefined) | 2 | 64 | > 8 |
| C[C@H]1CC[C@]2(NC1)O[C@H]1C[C@H]3[C@@H]4CC[C@H]5C[C@H](O)CC[C@]5(C)[C@H]4CC[C@]3(C)[C@H]1[C@@H]2C.Cl | 4 | > 64 | 4 |
| CC(C)CCNC(C)[C@H]1CC[C@H]2[C@@H]3CC[C@H]4C[C@@H](O)CC[C@]4(C)[C@H]3CC[C@]12C.Cl (some centres undefined) | 4 | > 64 | > 8 |
| CN(C)CC(=O)[C@H]1CC[C@H]2[C@@H]3CC[C@H]4C[C@@H](O)CC[C@]4(C)[C@H]3CC[C@]12C | 2 | > 64 | > 8 |
| C[C@]12CC[C@H](O)C[C@@H]1CC[C@@H]1[C@@H]2CC[C@]2(C)[C@@H](C(=O)CN3CCCCC3)CC[C@@H]12 | 2 | > 64 | > 8 |
| CCCCNC(C)[C@H]1[C@@H](O)C[C@H]2[C@@H]3CC[C@H]4C[C@@H](O)CC[C@]4(C)[C@H]3CC[C@@]21C.Cl (some centres undefined) | 2 | > 64 | > 8 |
| C[C@@H]1CC[C@@]2(NC1)O[C@H]1C[C@H]3[C@@H]4CC[C@H]5C[C@@H](O)CC[C@]5(C)[C@H]4CC[C@]3(C)[C@H]1[C@@H]2C | 1 | > 64 | > 8 |
| C=CCO[C@H]1CC[C@@]2(C)[C@@H](CC[C@@H]3[C@@H]2CC[C@]2(C)[C@@H]4[C@H](C[C@@H]32)O[C@@]2(CC[C@H](C)CN2)[C@H]4C)C1.Cl | 8 | 16 | 0.25 |
| C[C@H]1CC[C@]2(NC1)O[C@H]1C[C@H]3[C@@H]4CC[C@H]5CC(=O)CC[C@]5(C)[C@H]4CC[C@]3(C)[C@H]1[C@@H]2C.Cl | 8 | > 64 | 0.25 |
| CC(NCCN)[C@H]1CC[C@H]2[C@@H]3CC[C@H]4C[C@@H](O)CC[C@]4(C)[C@H]3CC[C@]12C.Cl.Cl (some centres undefined) | 2 | 32 | > 8 |
